Results taken from patent US9132097B2, “Nanoparticles stabilized with nitrophenylboronic acid compositions” (California Institute of Technology, priority 2013, dated 2015).
Like-named read-outs stand apart in the source and are kept apart here.

Experiments:
BT-474 xenograft tumors = system: BT-474 xenograft tumors
Experimental: Treatments began on day 1. […] All treatments were freshly prepared and given via intravenous tail vein injection. Injections were standardized at 150 μl per 20 g body weight of mice. […] Tumor sizes were recorded three times a week using caliper measurements (length×width2/2) and health of the animals was continuously monitored. Animals were euthanized when tumor volumes exceeded 1000 mm^3. Six weeks after beginning of the treatment, animals were euthanized by CO2 asphyxiation.

[1] = Plasma pharmacokinetics of free CPT in mice (comparison); assay type: in vivo; conditions: after 8 h, CPT alone at 10 mg/kg, CD2F1 mice
Experimental: Free CPT injected at 10 mg/kg into CD2F1 mice is shown as comparison. […] (B) Plasma concentration of unconjugated CPT as a function of time.

[2] = Irinotecan 80 mg/kg i.v. once per week for 3 weeks, Nbegin 8
[3] = CPT 8 mg/kg i.v. once per week for 3 weeks, Nbegin 8

Row | SMILES | Tumor inhibition compared to control group (BT-474 xenograft tumors; Irinotecan 80 mg/kg i.v. once per week for 3 weeks) | NNTRD (number of non-treatment related death) (BT-474 xenograft tumors; [2]) | NTRD (number of treatment related death) (BT-474 xenograft tumors; [2]) | Nend (number of animals surviving to end of study) (BT-474 xenograft tumors; [2]) | Neuthan (number of animals euthanized due to exceeding tumor size limit of 1000 mm^3) (BT-474 xenograft tumors; [2]) | Nreg to zero (number of animals with tumors regressed to zero at the end of study) (BT-474 xenograft tumors; [2]) | Injected dose remaining in circulation [1] | Tumor inhibition compared to control group (BT-474 xenograft tumors; CPT 8 mg/kg i.v. once per week for 3 weeks) | NNTRD (number of non-treatment related death) (BT-474 xenograft tumors; [3]) | NTRD (number of treatment related death) (BT-474 xenograft tumors; [3]) | Nend (number of animals surviving to end of study) (BT-474 xenograft tumors; [3])
1 | CCc1c2c(nc3ccc(OC(=O)N4CCC(N5CCCCC5)CC4)cc13)-c1cc3c(c(=O)n1C2)COC(=O)[C@]3(O)CC [Irinotecan] | non-significant tumor inhibition | 0 | 1 | 8/7 | 0 | 0 | – | – | – | – | –
2 | CC[C@@]1(O)C(=O)OCc2c1cc1n(c2=O)Cc2cc3ccccc3nc2-1 [CPT, Camptothecin] | – | – | – | – | – | – | 0.01% | no tumor inhibition | 0 | 4 | 8/0
